{"source": "paper PMC7349874", "about": "“High Content Screening Using New U2OS Reporter Cell Models Identifies Harmol Hydrochloride as a Selective and Competitive Antagonist of the Androgen Receptor” (Cells, 2020)", "key": {"AR [1]": {"target": "T1, AR (Homo sapiens, UniProt P10275)", "T1 sequence (P10275 1-920)": "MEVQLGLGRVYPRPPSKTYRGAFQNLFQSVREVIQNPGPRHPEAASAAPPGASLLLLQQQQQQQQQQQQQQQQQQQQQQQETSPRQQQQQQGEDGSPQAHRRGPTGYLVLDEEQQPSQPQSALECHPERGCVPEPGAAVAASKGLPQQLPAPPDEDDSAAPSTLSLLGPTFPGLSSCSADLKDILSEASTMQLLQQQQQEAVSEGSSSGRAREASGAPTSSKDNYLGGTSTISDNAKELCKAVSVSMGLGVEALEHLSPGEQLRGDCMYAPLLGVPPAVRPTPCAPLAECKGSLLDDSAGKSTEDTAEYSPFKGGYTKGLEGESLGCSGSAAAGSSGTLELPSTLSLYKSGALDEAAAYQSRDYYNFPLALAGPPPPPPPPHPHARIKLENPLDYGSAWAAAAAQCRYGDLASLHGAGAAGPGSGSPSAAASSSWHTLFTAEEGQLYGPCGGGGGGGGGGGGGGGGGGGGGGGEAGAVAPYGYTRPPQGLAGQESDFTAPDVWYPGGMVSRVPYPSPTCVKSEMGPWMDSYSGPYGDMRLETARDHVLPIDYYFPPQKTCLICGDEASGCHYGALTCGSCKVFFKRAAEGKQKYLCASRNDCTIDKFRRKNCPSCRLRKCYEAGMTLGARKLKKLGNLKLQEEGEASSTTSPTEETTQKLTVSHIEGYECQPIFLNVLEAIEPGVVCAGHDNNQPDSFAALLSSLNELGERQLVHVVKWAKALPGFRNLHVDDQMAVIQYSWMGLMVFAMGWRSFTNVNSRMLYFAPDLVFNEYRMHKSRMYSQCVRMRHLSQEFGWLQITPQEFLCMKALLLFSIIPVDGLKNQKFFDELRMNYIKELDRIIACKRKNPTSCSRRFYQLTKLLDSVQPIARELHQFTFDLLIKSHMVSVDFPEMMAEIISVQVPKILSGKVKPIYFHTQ", "test": "cell-based", "format": "binding", "procedure": "U2OS hAR-AREluc cells were seeded at a density of 80,000 cells per well in clear-bottomed 96-well plates (Greiner Bio-One, Courtaboeuf, France). […] Cells were then lysed with 50 μL of LSC-cocktail (Emulsifier-Safe, Packard BioScience, Wellesley, MA, USA), and [^3H]-bound radioactivity was counted in scintillation liquid with a microbeta trilux (Perkin Elmer, Wellesley, MA, USA). Non-specific binding was determined in the presence of 300 nM unlabeled R1881. Specific binding was calculated by subtracting non-specific binding from the total binding, and expressed as disintegrations per minute (dpm). […] Relative binding affinities (RBA) were calculated as IC50 ratios between each competitor and R1881. The RBA value for R1881 was arbitrarily set at 100.\nNon-specific binding was determined in the presence of 300 nM unlabeled R1881. Specific binding was calculated by subtracting non-specific binding from total binding. Results were plotted as % of maximal [^3H]-labeled R1881 binding as a function of drug concentrations (n = 3 ± SEM)."}, "[2]": {"set-up": "method as in PMID 19363158", "settings": "cited from earlier work"}, "[3]": {"target": "T2, progesterone receptor (PR) (Homo sapiens, UniProt P06401)", "T2 sequence (P06401 679-933 limits assumed)": "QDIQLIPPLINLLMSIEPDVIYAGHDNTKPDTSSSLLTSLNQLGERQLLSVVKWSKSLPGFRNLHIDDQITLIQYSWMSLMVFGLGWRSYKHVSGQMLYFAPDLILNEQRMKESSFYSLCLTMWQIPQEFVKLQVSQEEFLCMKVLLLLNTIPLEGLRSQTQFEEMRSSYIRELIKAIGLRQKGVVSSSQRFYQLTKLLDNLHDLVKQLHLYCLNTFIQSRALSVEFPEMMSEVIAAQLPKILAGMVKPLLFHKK", "test": "Transactivation assay in HELN PR cells", "format": "cell-based", "settings": "16 h, antagonism in the presence of 1 nM R5020", "from_the_text": "HG5LN MR and HG5LN PXR luciferase reporter cell lines were obtained by stable expression of individual ligand binding domains fused to GAL4 DNA binding domain in HG5LN (HeLa GAL4REx5-luciferase) cells, as previously described. HELN PR cells were obtained by stably expressing PR with the ERα DNA binding domain in HELN (HeLa ERE-luciferase) cells and HMLN GR cells were obtained by stable co-transfection of HeLa cells with a plasmid encoding for a glucocorticoid responsive gene (MMTV-Luc-SV-Neo) and a glucocorticoid receptor expressing plasmid, as previously described.\nAgonistic activities were evaluated in HMLN GR, HELN PR, HG5LN MR, and HG5LN PXR cells, using dexamethasone 100 nM, R5020 100 nM, aldosterone 100 nM, and SR12813 3 μM as a positive control, respectively. […] RU486 was used as a control antagonist for GR and PR, and spironolactone for MR.\nHMLN glucocorticoid receptor (GR), HG5LN mineralocorticoid receptor (MR), HELN progesterone receptor (PR) and HG5LN PXR cells were used to evaluate the antagonistic effect of the tested compounds on (A) the glucocorticoid receptor (GR), (B) the mineralocorticoid receptor (MR), (C) the progesterone receptor (PR) and (D) the agonistic activity towards the pregnane X receptor (PXR). […]"}, "AR [4]": {"system": "AR", "settings": "cited from earlier work"}}, "note": "Counter-ions that a name gives are not always drawn."}
{"smiles": "Cc1nccc2c1[nH]c1cc(O)ccc12", "note": "[harmol hydrochloride, Harmol hydrochloride monohydrate]", "values": [{"measurement": "Concentration competing with ligand binding relative to enzalutamide", "setting": "AR [1]", "result": 3.5, "unit": "fold"}, {"measurement": "IC50", "setting": "AR [1]; 0.3 nM [3H]-R1881, 3 h, 37 °C, read-out: IC50 of competition with [3H]-R1881 for AR binding", "result": 0.54, "unit": "µM"}, {"measurement": "Metabolism when administered in mice", "setting": "[2]", "result": "rapidly metabolized"}, {"measurement": "Activity towards PR", "setting": "[3]", "result": "did not show any significant activity"}, {"measurement": "Concentration competing for ligand binding relative to the concentration necessary to fully inhibit AR activity", "setting": "AR [4]", "result": "30- to 100 fold"}, {"measurement": "Inhibition of AR activation in a chemical genomic screen", "setting": "AR [4]", "result": "weak inhibitor"}, {"measurement": "Nature of AR inhibition reported earlier", "setting": "AR [4]", "result": "non-competitive inhibitor of AR"}]}
